Counter-ions that a name gives are not always drawn.
What follows are molecules tested against neuronal nicotinic cholinergic channel receptors (assay: [3H]-cytisine displacement binding to neuronal nicotinic cholinergic channel receptors). Conditions: Table 2; [3H]-cytisine 1.25 nM, 60 min at 4° C.; dihydrochloride; read-out: Receptor Binding Ki.
Assay type: rat (crude synaptic membranes from whole rat brain)
Procedure: B. Protocol For Determination of Nicotinic Cholinergic Channel Receptor Binding Potencies of Ligands
Binding of [^3 H]-cytisine ([^3 H]-CYT) to nicotinic receptors was accomplished using crude synaptic membrane preparations from whole rat brain (Pabreza et al., Molecular Pharmaol., 1990, 39:9). Washed membranes were stored at -80° C. prior to use. Frozen aliquots were slowly thawed and resuspended in 20 volumes of buffer (containing: 120 mM NaCl, 5 mM KCl, 2 mM MgCl2, 2 mM CaCl2 and 50 mM Tris-Cl, pH 7.4 @4° C.). After centrifuging at 20,000×g for 15 minutes, the pellets were resuspended in 30 volumes of buffer. Homogenate (containing […]) was added to triplicate tubes containing concentrations of test compound and [^3 H]-CYT (1.25 nM) in a final volume of 500 μL. Samples were incubated for 60 minutes at 4° C., then rapidly filtered through Whatman GF/B filters presoaked in 0.5% polyethylimine using 3×4 mL of ice-cold buffer. The filters are counted in 4 mL of Ecolume® (ICN). […] Alternately, data were expressed as a percentage of the total specific binding.

Structure (SMILES)	Ki [nM]
Cc1ncccc1OC[C@H]1CCN1 [Example 41, 2-methyl-3-(2-(R)-azetidinylmethoxy)pyridine dihydrochloride]	9.9
Cc1ncccc1OC[C@H]1CCN1 [Example 81, 2-methyl-3-(2-(R)-azetidinylmethoxy)pyridine dihydrochloride]	9.3

Same assay, conditions: Table 2; [3H]-cytisine 1.25 nM, 60 min at 4° C.; read-out: Receptor Binding Ki

Structure (SMILES)	Ki [nM]
Cc1ncccc1OC[C@@H]1CCN1C [Example 30, 2-Methyl-3-((1-methyl-2-(S)-azetidinyl)methoxy)pyridine dihydrochloride]	129
CN1CCC[C@H]1COc1cncc(C(F)(F)F)c1 [Example 44, 3-(1-methyl-2-(S)-pyrrolidinylmethoxy)-5-trifluoromethylpyridine dihydrochloride]	1.8
CN1CCC[C@@H]1COc1cncc(Br)c1 [Example 56, 5-bromo-3-((1-methyl-2-(R)-pyrrolidinyl)methoxy)pyridine hydrochloride]	9.2
CN1CC[C@H]1COc1cnc(Cl)c(Cl)c1 [Example 110, 5,6-Dichloro-3-(1-methyl-2-(S)-azetidinylmethoxy)pyridine hydrochloride]	0.75
Clc1ccc(OC[C@@H]2CCCN2)cn1 [Example 45, 3-(2-(S)-pyrrolidinylmethoxy)-6-chloropyridine dihydrochloride]	0.075
CCc1cncc(OC[C@@H]2CCCN2C)c1 [Example 75, 5-ethyl-3-(1-methyl-2-(S)-pyrrolidinylmethoxy)pyridine dihydrochloride]	0.32
CN1CCC[C@H]1COc1cncnc1 [Example 84, 5-(1-methyl-2-(S)-pyrrolidinylmethoxy)pyrimidine dihydrochloride]	2.41
c1cnc(OC[C@@H]2CCN2)cn1 [Example 7, 2-(2-(S)-azetidinylmethoxy)pyrazine dihydrochloride]	0.44
CCC[C@H]1CCN(C)[C@H]1COc1cccnc1 (relative stereo) [Example 60, 3-((cis-1-methyl-3-propyl-2-pyrrolidinyl)methoxy)pyridine dihydrochloride]	51
CO[C@@H]1C[C@@H](COc2cccnc2)N(C)C1 [Example 47, 34 (trans-4-methoxy-1-methyl-2-(S)-pyrrolidinyl)methoxy)pyridine dihydrochloride]	23
CN1CCC[C@@H]1COc1cncc(C(F)(F)F)c1 [Example 54, 3-((1-methyl-2-(R)-pyrrolidinyl)methoxy)-5-trifluoromethylpyridine hydrochloride]	78
CN1CCC[C@H]1COc1nccs1 [Example 11, 2-((1-methyl-2-(S)-pyrrolidinyl)methoxy)thiazole hydrochloride]	110
Brc1cncc(OC[C@@H]2CCCN2)c1 [Example 65, 5-bromo-3-(2-(S)-pyrrolidinylmethoxy)pyridine dihydrochloride]	0.6
Cc1ccc(OC[C@@H]2CCN2)cn1 [Example 40, 6-methyl-3-(2(S)-azetidinylmethoxy)pyridine dihydrochloride]	0.05
Cc1cncc(OC[C@@H]2CCCN2C)c1 [Example 73, 5-methyl-3-(1-methyl-2-(S)-pyrrolidinylmethoxy)pyridine dihydrochloride]	0.48
Clc1ccc(OC[C@H]2CCCN2)cn1 [Example 58, 3-(2-(R)-pyrrolidinylmethoxy)-6-chloropridine hydrochloride]	5.3
CCCCc1cncc(OC[C@@H]2CCCN2C)c1 [Example 71, 5-n-butyl-3-((1-methyl-2-(S)-pyrrolidinyl)methoxy)pyridine dihydrochloride]	0.1
CN1C[C@@H](CO)C[C@H]1COc1cccnc1 [Example 48, 3-((cis-4-hydroxymethyl-1-methyl-2-(S)-pyrrolidinyl)methoxy)pyridine dihydrochloride]	30
Clc1cc(OC[C@@H]2CCN2)cnc1Cl [Example 109, 5,6-Dichloro-3-(2-(S)-azetidinylmethoxy)pyridine hydrochloride]	0.024

Structure (SMILES)	Ki [nM]
Clc1ncccc1OC[C@@H]1CCCN1 [Example 43, 2-chloro-3-(2-(S)-pyrrolidinylmethoxy)pyridine dihydrochloride]	18.6
CN1CCC[C@H]1COc1ccc(CO)nc1 [Example 88, 6-hydroxymethyl-3-((1-methyl-2-(S)-pyrrolidinyl)methoxy)pyridine dihydrochloride]	10.4
FC(F)(F)c1cncc(OC[C@@H]2CCCN2)c1 [Example 66, 3-(2-(S)-pyrrolidinylmethoxy)-5-trifluoromethylpyridine dihydrochloride]	4
CN1CCC[C@@H]1COc1ccc(Cl)nc1 [Example 51, 3-((1-methyl-2-(R)-pyrrolidinyl)methoxy-6-chloropyridinedihydrochloride]	4.5
CN1CCC[C@H]1COc1cncc([N+](=O)[O-])c1 [Example 108, 5-Nitro-3-(1-methyl-2(S)-pyrrolidinylmethoxy)pyridine hydrochloride]	4.9
Clc1ccc(OC[C@@H]2CCN2)nn1 [Example 85, 3-(2-(S)-azetidinylmethoxy)-6-chloropyridazine hydrochloride]	16
CN1C[C@@H](F)C[C@H]1COc1cccnc1 [Example 78, 3-((cis-4-fluoro-1-methyl-2-(S)-pyrrolidinyl)methoxy)pyridine dihydrochloride]	5.77
CN1CC[C@H]1COc1ccc(Cl)nc1 [Example 86, 3-((1-methyl-2-(S)-azetidinyl)methoxy)-6-chloropyridine hydrochloride]	1.43
CN1CCC[C@H]1COc1ccc(Cl)nc1 [Example 55, 6-chloro-3-((1-methyl-2-(S)-pyrrolidinyl)methoxy)pyridine dihydrochloride]	0.63
Clc1cncc(OC[C@@H]2CCN2)c1 [Example 39, 5-chloro-3-(2-(S)-azetidinylmethoxy)pyridine dihydrochloride]	0.04
C=CCN1CCC[C@H]1COc1cccnc1 [Example 82, 3-((1-allyl-2-(S)-pyrrolidinyl)methoxy)pyridine dihydrochloride]	72.4
FC(F)(F)c1cncc(OC[C@H]2CCCN2)c1 [Example 69, 3-(2-(R)-pyrrolidinylmethoxy)-5-trifluoromethylpyridine dihydrochloride]	2.1
CN1C[C@H](OS(C)(=O)=O)C[C@H]1COc1cccnc1 [Example 87, 3-((trans-4-methanesulfonyloxy-1-methyl-2(S)-pyrrolidinyl)methoxy)pyridine dihydrochloride]	0.11
CN1CCCC[C@@H]1COc1cccnc1 [Example 42, 3-((1-methyl-2-(R)-piperidinyl)methoxy)pyridine dihydrochloride]	342
CN1C[C@H](CC#N)C[C@H]1COc1cccnc1 [Example 50, 3-((trans-4-cyanomethyl-1-methyl-2-(S)-pyrrolidinyl)methoxy)pyridine dihydrochloride]	5.6
CCC[C@H]1CCN[C@H]1COc1cccnc1 (relative stereo) [Example 61, 3-((cis-3-propyl-2-pyrrolidinyl)methoxy)pyridine dihydrochloride]	1.3
Cc1ccncc1OC[C@@H]1CCN1 [Example 64, 4methyl-3-(2-(S)-azetidinylmethoxy)pyridine dihydrochloride]	224
CN1C[C@@H](CF)C[C@H]1COc1cccnc1 [Example 92, 3-((cis-4-fluoromethyl-1-methyl-2-(S)-pyrrolidinyl)methoxy)pyridine dihydrochloride]	141

Same assay, conditions: read-out: Receptor Binding Ki

Structure (SMILES)	Ki [nM]
Brc1ccncc1OC[C@@H]1CCCN1 [Example 20, 4-bromo-3-(2-(S)-pyrrolidinylmethoxy)pyridine dihydrochloride]	341
CN1CCC[C@H]1COc1ccc(Cl)nn1 [Example 12, 3-((1-methyl-2-(S)-pyrrolidinyl)methoxy-6-chloropyridazine fumarate]	29
CN1CCC[C@@H]1COc1cncc(Cl)c1 [Example 34, 5-chloro-3-((1-methyl-2-(R)-pyrrolidinyl)methoxy)pyridine dihydrochloride]	11
Cc1ncccc1OC[C@@H]1CCN1 [Example 29, 2-methyl-3-(2-(S)-azetidinylmethoxy)pyridine dihydrochloride]	1.3
CC(Oc1cccnc1)[C@@H]1CCCN1C (stereo partly drawn) [Example 6, 3-(a-methyl-(1-methyl-2-(S)-pyrrolidinyl)methoxy)pyridine hydrochloride]	6.7
CN1CCCCC1COc1cccnc1 (stereo not shown) [Example 26, 3-((1-methyl-2-piperidinyl)methoxy)pyridine oxalate salt]	76
Cc1ccc(OC[C@H]2CCCN2C)cn1 [Example 36, 6-methyl-3-((1-methyl-2-(R)-pyrrolidinyl)methoxy)pyridine dihydrochloride]	26
CN1CC[C@H]1COc1ccc(Cl)nn1 [Example 13, 6-chloro-3-((1-methyl-2(S)-azetidinyl)methoxy)pyridazine oxalate]	65
c1cncc(OC[C@H]2CCCN2)c1 [Example 2, 3-(2-(R)-pyrrolidinylmethoxy)pyridine dihydrochloride]	0.17
CN1CCC[C@H]1COc1cnccc1Br [Example 21, 4-bromo-3-((1-methyl-2-(S)-pyrrolidinyl)methoxy)pyridine dihydrochloride]	23
